Test results published in PubChem BioAssay AID651856 (Broad Institute, 2012).

These compounds were tested on non-replicating M. tuberculosis, luciferase expression (assay: non-replicating M. tuberculosis inhibition, confirmation, luciferase expression (AID 651856)).

| SMILES | IC90 [µM] |
| --- | --- |
| c1ccc(CSc2nnc(-c3ccccc3)o2)cc1 | 16 |
| O=S(Cc1cn(Cc2ccc(F)cc2)nn1)c1nnc(-c2ccc(Cl)cc2)o1 (stereo not drawn) | 4 |
| Fc1ccc(Cn2cc(CSc3nnc(-c4ccc(Cl)cc4)o3)nn2)cc1 | 2 |
| Clc1ccc(-c2nnc(SCc3cn(Cc4ccccc4)nn3)o2)cc1 | 4 |
| O=S(=O)(Cc1ccccc1)c1nnc(-c2ccccc2)o1 | 4 |
| O=S(=O)(Cc1cn(Cc2ccccc2)nn1)c1nnc(-c2ccc(Cl)cc2)o1 | 8 |
| O=S(Cc1cn(Cc2ccccc2)nn1)c1nnc(-c2ccc(Cl)cc2)o1 (stereo not drawn) | 1 |
| O=S(Cc1ccccc1)c1nnc(-c2ccccc2)o1 (stereo not drawn) | 1 |
